# Measured values published in patent EP0199262A2, “Fluorinated benzyl triazole compounds” (CIBA-GEIGY AG, priority 1985, dated 1986).
# Columns and labels:
# [1] = system: durch Elektroschock ausgelöste Konvulsionen; test: Protection against electroshock-induced convulsions, mouse; format: in vivo, Maus; details: po, read-out: effektive Dosis ED50
# Method: (§1) Die neuen Verbindungen besitzen wertvolle pharmakologische Eigenschaften, insbesondere eine ausgeprägte antikonvulsive Wirksamkeit, die sich beispielsweise an der Maus anhand eines deutlichen Metrazol-Antagonismus im Dosisbereicn von etwa 30 bis 300 mg/kg p.o. sowie an Maus und Ratte anhand einer ausgeprägten Schutzwirkung gegen durch Elektroschock ausgelöste Konvulsionen im Dosisbereich von etwa 1 bis etwa 50, in den meisten Fällen von etwa 1 bis etwa 25 mg/kg p.o. zeigen lässt. In diesem Modell wurden beispielsweise die folgenden Werte für die effektive Dosis ED50 in mg/kg p.o. erhalten (1 h Vorapplikation): • 1-(2,6-Difluorbenzyl)-1 H-1,2,3-triazof-4-carboxamid: 17 (Maus bzw. 8 (Ratte); • 1-(o-Fluorbenzyl)-1H-1,2,34dazol-4-carboxamid: 17 (Maus, Ratte); • 1-(2,6-Difluorbenzyl)-1 H-1,2,3-triazol-4,5-dicarboxamid: 4 (Maus, Ratte); • 1-(6-Chlor-2-fluor-phenyl)-1 H-1,2,3-triazol-4,5-dicarboxamid: 7 (Maus) bzw. 10 (Ratte), • 1-(o-Fluorphenyl)-1H-1,2,3-triazof-4,5-dicarboxamid: 6 (Maus) bzw. 10 (Ratte); • 1-(6-Chlor-2-fluar-phenyl)-1H-1,2,3-triazol-4-carboxamid: 11 (Maus); 1-(2,5-Difluorbenzyl)-1H-1,2,3-triazol-4,5-dicarboxamid: 6 (Maus).
# (§2) Die erfindungsgemäss bereitgestellten fluorierten 1-(a-Phenylalkyl)-1H-1,2,3-triazolverbindungen der Formel (I) weisen ihren als antikonvulsiv wirksam bekannten Chloranalogen gegenüber den Vorteil einer verbesserten Wirksamkeit auf. So ergaben sich in obigem Modell z.B. folgende Ed50-Werte: • 1-(o-Chlorbenzyl)-1 H-1,2,3-triazol-4-carboxamid: 26 (Maus) bzw. 25 (Ratte) und • 1-(o-Chlorbenzyl)-1 H-1,2,3-triazol-4,5-dicarboxamid: 40 (Maus) bzw. 43 (Ratte).
# [2] = system: durch Elektroschock ausgelöste Konvulsionen; test: Protection against electroshock-induced convulsions, rat; format: in vivo, Ratte; details: po, read-out: effektive Dosis ED50
# Method: as §1, §2
# [3] = Maus, electroshock, p.o., 1 h Vorapplikation
# [4] = Ratte, electroshock, p.o., 1 h Vorapplikation
structure (smiles),measurement,setting,value
"NC(=O)c1nnn(Cc2ccccc2Cl)c1C(N)=O [1-(o-Chlorbenzyl)-1 H-1,2,3-triazol-4,5-dicarboxamid, reference compound]",ED50,[1]; [3],40 mg/kg
same,ED50,[2]; [4],43 mg/kg
"NC(=O)c1nnn(Cc2c(F)cccc2Cl)c1C(N)=O [1-(6-Chlor-2-fluor-benzyl)-1 H-1,2,3-triazol-4,5-dicarboxamid]",ED50,[1]; [3],7 mg/kg
same,ED50,[2]; [4],10 mg/kg
"NC(=O)c1cn(Cc2ccccc2F)nn1 [1-(o-Fluorbenzyl)-1 H-1,2,3-triazol-4-carboxamid]",ED50,[1]; 1 h,17 mg/kg
same,ED50,[2]; 1 h,17 mg/kg
"NC(=O)c1cn(Cc2ccccc2Cl)nn1 [1-(o-Chlorbenzyl)-1 H-1,2,3-triazol-4-carboxamid, reference compound]",ED50,[1]; 1 h,26 mg/kg
same,ED50,[2]; 1 h,25 mg/kg
"NC(=O)c1nnn(Cc2cc(F)ccc2F)c1C(N)=O [1-(2,5-Difluorbenzyl)-1H-1,2,3-triazol-4,5-dicarboxamid]",ED50,[1]; [3],6 mg/kg
"NC(=O)c1cn(Cc2c(F)cccc2F)nn1 [1-(2,6-Difluorbenzyl)-1 H-1,2,3-triazol-4-carboxamid]",ED50,[1]; [3],17 mg/kg
same,ED50,[2]; [4],8 mg/kg
"NC(=O)c1nnn(Cc2ccccc2F)c1C(N)=O [1-(o-Fluorbenzyl)-1 H-1,2,3,-triazol-4,5-dicarboxamid]",ED50,[1]; [3],6 mg/kg
same,ED50,[2]; [4],10 mg/kg
"NC(=O)c1nnn(Cc2c(F)cccc2F)c1C(N)=O [1-(2,6-Difluorbenzyl)-1H-1,2,3-triazol-4,5-dicarboxamid]",ED50,[1]; [3],4 mg/kg
same,ED50,[2]; [4],4 mg/kg
"NC(=O)c1cn(Cc2c(F)cccc2Cl)nn1 [1-(6-Chlor-2-fluor-benzyl)-1H-1,2,3-triazol-4-carboxamid]",ED50,[1]; 1 h,11 mg/kg
